The values that follow come from patent US7470711B2, “Piperidinyl substituted cyclohexane-1,4-diamines” (Janssen Pharmaceutica N.V., priority 2005, dated 2008).

For one series, the target named is T1, α1a-AR (Homo sapiens, UniProt P35348).
T1 construct: expressed in transfected cells; host or cells: COS-7 cells (membranes)
T1 sequence (P35348 1-455 isoform P35348-4): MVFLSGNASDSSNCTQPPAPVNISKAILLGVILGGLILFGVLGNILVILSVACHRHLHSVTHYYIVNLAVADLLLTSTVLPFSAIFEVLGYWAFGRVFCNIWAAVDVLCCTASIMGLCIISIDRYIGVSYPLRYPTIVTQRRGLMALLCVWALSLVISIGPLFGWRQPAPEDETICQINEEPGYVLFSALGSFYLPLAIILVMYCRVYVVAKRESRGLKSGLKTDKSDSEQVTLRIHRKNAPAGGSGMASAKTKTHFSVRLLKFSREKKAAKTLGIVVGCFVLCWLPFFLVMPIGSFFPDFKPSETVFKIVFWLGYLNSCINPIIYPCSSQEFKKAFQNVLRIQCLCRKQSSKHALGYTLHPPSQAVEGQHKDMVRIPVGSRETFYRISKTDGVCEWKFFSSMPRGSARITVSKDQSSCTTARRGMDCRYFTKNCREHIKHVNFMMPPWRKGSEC
Nature of the series: α1-Adrenergic receptor radio-ligand binding assay, α1a subtype. Here is the method:
(§1) Membranes were prepared from COS-7 cells (African Green monkey kidney SV40-transformed cells) that had been transfected with one of the three α1-AR subtypes (Genbank accession number for the α1a subtype: AF013261; Genbank accession number for the α1b subtype: NM000679; Genbank accession number for the α1d subtype: NM000678) using the following method: COS cells from ten 100 mm tissue culture plates were scraped into a 5 mL volume of TE (a mixture of 50 mM Tris-HCl, 5 mM EDTA, pH 7.4). […] The disrupted cells were centrifuged at 1000×g for 10 min at 4° C. Supernatants were centrifuged at 34,500×g for 20 min at 4° C. The membrane pellets were suspended in a 2 mL volume of TNE (a mixture of 50 mM Tris-HCl, 5 mM EDTA and 150 mM NaCl at pH 7.4). An aliquot of the membrane suspension was stored at −70° C. until use. The protein concentration was determined using the BioRad “DC” protein assay kit following membrane solubilization with Triton X-100.
(§2) Triplicate determinations of radio-ligand binding in the presence of increasing concentrations of testing compound were made. The reagents were added to 96-well polypropylene plate wells. […] The plate was incubated at rt for 1 hr. The contents of the wells were filtered through a glass filter (type C) (GF/C) membrane Unifilter plate (Packard Instruments) using the Packard Filtermate cell harvester. The filter plates were dried in a vacuum oven for 30 min at 40° C. 25 μL Microscint 20 liquid scintillation fluid (Packard Instuments) was added to each well. The radioactive content was analyzed in the TopCount microplate scintillation counter (Packard Instruments).

A further series deals with T2, α1b-AR (Homo sapiens, UniProt P35368).
T2 construct: expressed in transfected cells; host or cells: COS-7 cells (membranes)
T2 sequence (P35368 1-520): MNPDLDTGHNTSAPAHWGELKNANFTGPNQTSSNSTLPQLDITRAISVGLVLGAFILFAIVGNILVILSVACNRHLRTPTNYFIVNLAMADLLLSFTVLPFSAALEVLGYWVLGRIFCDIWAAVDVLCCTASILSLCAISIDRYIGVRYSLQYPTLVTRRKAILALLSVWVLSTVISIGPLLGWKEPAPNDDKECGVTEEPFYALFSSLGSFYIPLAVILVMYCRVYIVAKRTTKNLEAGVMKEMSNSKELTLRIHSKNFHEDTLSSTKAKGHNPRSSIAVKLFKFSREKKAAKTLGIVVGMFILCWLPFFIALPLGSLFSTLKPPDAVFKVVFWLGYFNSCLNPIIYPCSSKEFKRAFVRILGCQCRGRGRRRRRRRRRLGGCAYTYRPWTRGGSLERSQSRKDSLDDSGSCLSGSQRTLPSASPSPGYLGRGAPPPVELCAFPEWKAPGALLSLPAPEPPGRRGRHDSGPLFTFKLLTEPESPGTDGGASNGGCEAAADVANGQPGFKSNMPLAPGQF
In words: α1-Adrenergic receptor radio-ligand binding assay, α1b subtype. To be noted: 125I-HEAT, membranes of COS-7 cells transfected with α1b subtype, rt 1 hr; read-out: Receptor Binding, Ki α1b-AR. Here is the method:
as §1, §2

Another series addresses T3, α1d-AR (Homo sapiens, UniProt P25100).
T3 construct: expressed in transfected cells; host or cells: COS-7 cells (membranes)
T3 sequence (P25100 1-572): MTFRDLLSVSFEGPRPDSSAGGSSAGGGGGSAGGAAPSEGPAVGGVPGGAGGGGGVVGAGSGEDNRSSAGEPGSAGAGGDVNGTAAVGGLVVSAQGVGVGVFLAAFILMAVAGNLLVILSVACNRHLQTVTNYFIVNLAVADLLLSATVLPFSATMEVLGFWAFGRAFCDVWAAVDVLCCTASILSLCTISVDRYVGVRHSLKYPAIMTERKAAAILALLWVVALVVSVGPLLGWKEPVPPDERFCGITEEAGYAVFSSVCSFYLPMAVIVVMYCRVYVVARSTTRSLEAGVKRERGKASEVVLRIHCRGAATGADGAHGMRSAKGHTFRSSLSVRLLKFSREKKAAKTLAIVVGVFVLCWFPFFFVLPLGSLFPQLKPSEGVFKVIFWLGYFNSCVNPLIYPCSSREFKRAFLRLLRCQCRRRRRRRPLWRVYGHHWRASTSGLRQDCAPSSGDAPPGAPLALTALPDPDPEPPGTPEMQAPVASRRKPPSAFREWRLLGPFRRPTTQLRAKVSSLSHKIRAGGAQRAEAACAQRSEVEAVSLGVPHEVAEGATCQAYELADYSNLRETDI
Nature of the series: α1-Adrenergic receptor radio-ligand binding assay, α1d subtype. To be noted: 125I-HEAT, membranes of COS-7 cells transfected with α1d subtype, rt 1 hr; read-out: Receptor Binding, Ki α1d-AR. The procedure: as §1, §2

Series [1] relates to α1a and α1d subtypes over the α1b subtype. To be noted: cited from earlier work.
In another series the test system is BPH patients. To be noted: large clinical trials of BPH patients; cited from earlier work.
The test system of series [2] is normal rats and rats with bladder hypertrophy secondary to outlet obstruction. To be noted: intrathecally administered; cited from earlier work.
Setting [3] is: 125I-HEAT, membranes of COS-7 cells transfected with α1a subtype, rt 1 hr, read-out: Receptor Binding, Ki α1a-AR.

Read-outs that look alike come from different tables or passages of the source.

What is called Ki is a dissociation constant, usually derived from enzyme kinetics or from competition with a known ligand. As a reminder, the melting point is the temperature of the solid-liquid transition. The compound `O=S(=O)(N[C@H]1CC[C@@H](N2CCC(c3ccccc3OCC(F)(F)F)CC2)CC1)c1ccc(OC(F)F)cc1` [Cpd 25, 4-difluoromethoxy-N-cis-(4-{4-[2-(2,2,2-trifluoro-ethoxy)-phenyl]-piperidin-1-yl}-cyclohexyl)-benzenesulfonamide] showed a melting point of 196 °C. Besides, the Ki at α1a-AR (setting [3]) was determined as 5.4 nM. Also, the Ki at α1b-AR came out at 76 nM. For the same compound, the Ki at α1d-AR is 2.7 nM.

Turning to `O=S(=O)(N[C@H]1CC[C@H](N2CCC(c3ccccc3OCC(F)(F)F)CC2)CC1)c1ccc(OC(F)F)cc1` [Cpd 26, 4-difluoromethoxy-N-trans-(4-{4-[2-(2,2,2-trifluoro-ethoxy)-phenyl]-piperidin-1-yl}-cyclohexyl)-benzenesulfonamide], the melting point was 155 °C. Moreover, on α1a-AR, the Ki came to 37.5 nM. Besides, at α1b-AR, the Ki is 302 nM. Further, the Ki at α1d-AR amounted to 85.7 nM.

In the case of `COc1ccc(S(=O)(=O)N[C@H]2CC[C@@H](N3CCC(c4ccccc4OCCF)CC3)CC2)cc1OC` [Cpd 27, N-cis-(4-{4-[2-(2-fluoro-ethoxy)-phenyl]-piperidin-1-yl}-cyclohexyl)-3,4-dimethoxy-benzenesulfonamide], the melting point was 225 °C. Further, the Ki at α1a-AR (setting [3]) was found to be 10.9 nM. Also, the Ki at α1b-AR is 354 nM. Moreover, the Ki on α1d-AR was found to be 8.8 nM.

`COc1ccc(S(=O)(=O)N[C@H]2CC[C@H](N3CCC(c4ccccc4OCCF)CC3)CC2)cc1OC` [Cpd 28, N-trans-(4-{4-[2-(2-fluoro-ethoxy)-phenyl]-piperidin-1-yl}-cyclohexyl)-3,4-dimethoxy-benzenesulfonamide] displayed a melting point of 142 °C. The inhibition constant Ki on α1a-AR (setting [3]) was 68.8 nM. Further, at α1b-AR, the Ki worked out at 4400 nM. For the same compound, the Ki at α1d-AR was 48.6 nM.

For `COc1ccc(S(=O)(=O)N[C@H]2CC[C@@H](N3CCC(c4ccccc4OCC(F)F)CC3)CC2)cc1OC` [Cpd 29, N-cis-(4-{4-[2-(2,2-difluoro-ethoxy)-phenyl]-piperidin-1-yl}-cyclohexyl)-3,4-dimethoxy-benzenesulfonamide], the melting point stood at 219 °C. At α1a-AR (setting [3]), the Ki was determined as 12 nM. Besides, the Ki on α1b-AR stood at 300 nM. Further, at α1d-AR, the Ki was 4.1 nM.

`COc1ccc(S(=O)(=O)N[C@H]2CC[C@H](N3CCC(c4ccccc4OCC(F)F)CC3)CC2)cc1OC` [Cpd 30, N-trans-(4-{4-[2-(2,2-difluoro-ethoxy)-phenyl]-piperidin-1-yl}-cyclohexyl)-3,4-dimethoxy-benzenesulfonamide] had a melting point of 197 °C. The compound further returned a Ki on α1a-AR of 30.5 nM. Also, at α1b-AR, the inhibitory constant (Ki) was 681 nM. The Ki at α1d-AR worked out at 86 nM.

`CCOc1ccccc1OCCN[C@H](C)Cc1ccc(OC)c(S(N)(=O)=O)c1` [Tamsulosin]: the “selectivity for the α1a and α1d subtypes over the α1b subtype” value in series [1] is listed as “about 15 fold”. Further, in the series on BPH patients, the “effect on obstructive and irritative symptoms” value was “improvement in both obstructive and irritative symptoms”; the side effects seen entry was “cardiovascular and erectile dysfunction side effects were seen”.

As to `COc1cc2nc(N3CCN(C(=O)C4COc5ccccc5O4)CC3)nc(N)c2cc1OC` (stereo not shown) [doxazosin], in series [2], the micturition pressure entry was “decrease in micturition pressure”.
